The test system of one data set is 48 bromodomains. Put plainly: Thermal shift assay, bromodomain panel. In kind it is binding, human. The note with it: 50 μM compound concentrations. The method, then: II.VII Thermal Shift Assay[6]
Thermal melting experiments were carried out using an Mx3005p Real Time PCR machine (Stratagene). Proteins were buffered in 10 mM HEPES pH 7.5, 500 mM NaCl and assayed in a 96-well plate at a final concentration of 2 μM in 20 μL volume. Compounds were added at a final concentration of 50 μM. SYPRO Orange (Molecular Probes) was added as a fluorescence probe at a dilution of 1:1000. Excitation and emission filters for the SYPRO-Orange dye were set to 465 nm and 590 nm, respectively. The temperature was raised with a step of 3 °C per minute from 25 °C to 96 °C and fluorescence readings were taken at each interval. The unfolding curves were fitted using the Boltzmann equation to determine the middle point of the transition.

For a further data set, the target named is T1, MLLT1 YD (Homo sapiens, UniProt Q03111).
T1 construct: made in house; host or cells: E. coli Rosetta
T1 sequence (Q03111 1-138 limits assumed): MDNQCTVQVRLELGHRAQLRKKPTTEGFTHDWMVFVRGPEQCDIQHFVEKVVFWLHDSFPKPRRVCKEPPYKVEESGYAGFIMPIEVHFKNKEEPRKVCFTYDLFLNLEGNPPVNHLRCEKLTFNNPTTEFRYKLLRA
The data set can be described thus: Isothermal titration calorimetry (ITC), MLLT1 YD. In kind it is binding.

The next data set has as its target FALZ (Homo sapiens, UniProt Q12830). The data set can be described thus: AlphaScreen selectivity screen, FALZ. It is filed as binding. The source says:
(§1) IC50 (µM) IC50 (µM) IC50 (µM) IC50 (µM) (µM) (µM) (µM)
(§2) Supplementary Table 1. […]
A general note: Bead proximity is the source of the signal in Alpha formats.

A further data set addresses T2, YEATS2 (Homo sapiens, UniProt Q9ULM3).
T2 construct: made in house; host or cells: E. coli Rosetta
Put plainly: AlphaScreen selectivity screen, YEATS2. It is filed as binding.
Excerpt: as §1, §2

Data set [1] in a line: Metabolic stability in primary human hepatocytes. In kind it is in vitro ADME. The method, then: page 98: II.IX in vitro Metabolism Studies Metabolic stability studies were carried out exposing nominated compounds to samples of primary human hepatocytes . Compounds were analysed by LC -MS for loss of parent compound at 0, 10, 30, 60 and 120-minute time points and analysis of metabolites formed . […] 1000000 500000 0 0 min 10 min 30 min 60 min 120 min Supplementary Figure 8.

For data set [2], the target named is T3, endogenous MLLT1 in HEK293 cells (Homo sapiens, UniProt Q03111).
T3 construct: endogenous in cells; host or cells: HEK293
The data set can be described thus: Cellular thermal shift assay (CETSA), HEK293 cells. Particulars: Western blot. In kind it is cell-based. The procedure:
Supplementary Table 2. Thermal stabilisation of compound 1, 92 and Bromosporine with recombinant human bromodomain proteins. *50 µM compound concentration. †10 µM compound […]
II.VIII Cellular Thermal Shift Assay[6]
HEK293 and MV4;11 cells were cultured at 37 °C in a humidified 5% CO2 atmosphere in DMEM Medium containing 10% FBS, respectively. Cells were grown until approximately […]
DMSO final concentrati on) for 30 minutes. Cells were then collected, washed with PBS, transferred in PCR tubes, and pelleted by centrifugation (300 g, 3 min, RT.) The PBS was removed, and the cell pellets heated at the indicated temperature for 3 minutes in a PCR machine (UNO96 , VMR) and then placed on ice. Lysis buffer (50 mM Tris pH 7.5, 0.8% v/v NP-40, 5% v/v glycerol, 1.5 mM MgCl2, 100 mM NaCl, 25 mM NaF, 1mM Na3VO4, 1mM PMSF, 1mM DTT, 10 μg/mL TLCK, 1 μg/mL Leupeptin, 1 μg/mL Aprotinin, 1 μg/mL soy bean trypsin, ≥250 units/ mL Benzonase) was added and the cells lysed by 3 freeze -thaw cycles in liquid nitrogen. Aggregated proteins were removed by centrifugation (17000 g, 20 min, 4 °C) and the protein concentration of the retained soluble fraction determined. 4× sample loading buffer (Bio-Rad) containing 20% v/v DTT was added and samples were heated for 6 min at 90 °C prior to separation by SDS -PAGE. […]

A further data set concerns the target T4, CBP (Homo sapiens, UniProt Q92793).
T4 construct: made in house
The data set can be described thus: AlphaScreen selectivity screen, CBP. In kind it is binding.
Excerpt: as §1, §2

T4 sequence (Q92793 1085-1192 limits assumed): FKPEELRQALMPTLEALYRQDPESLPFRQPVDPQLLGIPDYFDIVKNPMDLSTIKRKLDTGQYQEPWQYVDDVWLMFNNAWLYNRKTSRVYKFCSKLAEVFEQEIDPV
T3 sequence (Q03111 whole entry): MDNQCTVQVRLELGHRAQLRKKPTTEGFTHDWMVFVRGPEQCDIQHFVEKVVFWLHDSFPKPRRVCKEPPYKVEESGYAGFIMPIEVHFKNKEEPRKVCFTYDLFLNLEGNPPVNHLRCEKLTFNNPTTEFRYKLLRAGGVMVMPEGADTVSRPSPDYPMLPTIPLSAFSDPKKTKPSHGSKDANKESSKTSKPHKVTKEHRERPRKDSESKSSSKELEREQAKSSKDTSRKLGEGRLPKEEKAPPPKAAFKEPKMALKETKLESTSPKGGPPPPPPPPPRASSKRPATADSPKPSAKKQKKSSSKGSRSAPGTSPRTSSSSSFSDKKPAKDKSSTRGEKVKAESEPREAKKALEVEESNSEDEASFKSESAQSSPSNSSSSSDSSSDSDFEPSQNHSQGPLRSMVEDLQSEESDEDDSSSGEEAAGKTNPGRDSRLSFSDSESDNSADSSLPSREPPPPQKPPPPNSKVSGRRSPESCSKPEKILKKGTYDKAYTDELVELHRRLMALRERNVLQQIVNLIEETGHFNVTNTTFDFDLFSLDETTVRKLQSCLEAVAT
T2 sequence (Q9ULM3 200-345 limits assumed): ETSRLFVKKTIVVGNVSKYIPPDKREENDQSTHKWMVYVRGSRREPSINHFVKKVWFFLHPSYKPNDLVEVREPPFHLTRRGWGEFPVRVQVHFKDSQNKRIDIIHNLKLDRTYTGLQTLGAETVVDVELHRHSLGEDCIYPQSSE
Procedure for MLLT1 YD: Experiments were carried out on a Nano -ITC Standard Volume Instrument (TA Instruments).
All experiments were carried out at 25 °C in 20 mM HEPES pH 7.5, 150 mM NaCl, 0.5 mM TCEP and 5% glycerol. Protein soluti ons were buffer exchanged by gel filtration. The titrations were conducted using an initial injection of 2 μL followed by 32 injections of 8 μL.
Background dilution heat was subtracted from each experiment. Thermodynamic parameters
changes in free energy, enthalpy and entropy respectively. Independent single site binding models were employed in data analysis.

A word on the Kd: it is the concentration at which binding is half-saturated. Higher therefore signals lower affinity. Consider `COC(=O)c1ccc(C(=O)Nc2ccc3[nH]c(CN4CCCCC4)nc3c2)cc1` [Compound 1], for which the “activity against 48 bromodomains in thermal shift assay” value in the data set with 48 bromodomains is reported as “no activity”. At MLLT1 YD, this molecule yielded a Kd of 1 µM.
Usually IC50 stands for the concentration that inhibits the measured activity by half. A lower IC50 goes with inhibition by little substance. Consider `C[C@H]1CCCN1Cc1nc2cc(NC(=O)c3ccc4c(cnn4C)c3)ccc2[nH]1` [Compound 92], for which the “inhibition of FALZ” value against FALZ (10 μM using AS) is “no inhibition”. The IC50 on FALZ (AlphaScreen selectivity screen), against YEATS2 and at CBP (AlphaScreen selectivity screen) was > 10 µM throughout. The “parent remaining after 60 min” value in data set [1] (60 min) is recorded as 48%. The half-life in data set [1] (human, read-out: metabolic stability t1/2) was determined as 53 min. Moreover, the “heat shock stabilisation of endogenous MLLT1 (CETSA)” value in data set [2] is on record as “stabilisation”. Further, at CBP (10 μM using AS), the “inhibition of CBP” value is reported as “no inhibition”.
